One molecule from US20110039793A1, “Application of ginsenoside Rb1 in preparing medicaments for treating dilated cardiomyopathy” (priority 2008, published 2011) can be followed below.

Assay [1] concerns cTnT^R141W transgenic dilated cardiomyopathy mice model. Description: Survival analysis of cTnT^R141W transgenic mice after long-term administration. The assay is classed as in vivo. The settings on record: 75 mg/kg in drinking water for seven months. As to the method: The positive mice at 1.5 months old are distributed by weight and cardiac function uniformly into the model group and the ginsenoside Rb1 administration group according to the echocardiography result, and each group comprises twelve mice. Ginsenoside Rb1, 75 mg/kg (State Yao zhun Zi, Yun Nan Tean Na Pharmaceutical Co., Ltd) is put into animal drinking water, and continuously administered for seven months.
Individual death occurs in the feeding process of the cTnT^R141W transgenic mice model. From the beginning of administration to the observation endpoint, the death of animal of each group is recorded. The death of animal of the negative control group is zero, and the model group is four, and the ginsenoside Rb1 group is two.

For assay [2] the test system is unchanged. Description: Cardiac gene expression, RT-PCR method. The assay is classed as in vivo. The settings on record: cardiac tissue, long-term administration. As to the method: Effects on some cardiac gene expression of the mice model with dilated cardiomyopathy after a long-term administration of ginsenoside Rb1 (RT-PCR method)
1) Pulverize the tissue in liquid nitrogen, and then add 1 ml Trizol liquid into the 50-100 mg tissue;
2) Place the grinded liquid at RT for 5 min, add 0.2 ml chloroform into the grinded liquid, tightly cap the centrifuge tube, and violently vortex the centrifuge tube for 15 sec;
3) Remove 0.5 ml the upper transparent liquid into a new centrifuge tube, add 0.5 ml isopropanol, placed at RT for 10 min, and centrifugate at 4° C., 12000 g for 10 min;
4) Remove the supernatant, add 1 ml 75% ethanol and centrifugate at 4° C., 7500 g for 5 min;
5) Carefully remove the supernatant, then dried at RT for 5-10 min, and then dissolved in DEPC-treated water.
2. RT-PCR (Reverse Transcription—Polymerase Chain Reaction)
Add the above mixture into the tube in step 1), then incubated at 42° C. for 2 min;
3) Add 1 μl SuperScript, II RT at 42° C. for 50 min;
4) Placed on ice for 15 min;
5) Add 1 μl RNase H, then incubated at 37° C. for 20 min;
6) PCR reaction system is shown as follow:
7) General conditions of PCR are shown as follow. Pre-denaturation at 94° C. for […], and extension at 72° C. for […] And the annealing temperature, the annealing time, the primer sequences and the cyclic numbers are shown in Table 2.
wherein, Gapdh serves as the loading control.

Take `CC(C)=CCC[C@](C)(O[C@@H]1O[C@H](CO[C@@H]2O[C@H](CO)[C@@H](O)[C@H](O)[C@H]2O)[C@@H](O)[C@H](O)[C@H]1O)[C@H]1CC[C@]2(C)[C@@H]1[C@H](O)C[C@@H]1[C@@]3(C)CC[C@H](O[C@@H]4O[C@H](CO)[C@@H](O)[C@H](O)[C@H]4O[C@@H]4O[C@H](CO)[C@@H](O)[C@H](O)[C@H]4O)C(C)(C)[C@@H]3CC[C@]12C` [Rb1, ginsenoside Rb1]: in assay [1] (vs model group), the “mortality rate (survival analysis, FIG. 2)” value is listed as “reduce the mortality rate”. For the same molecule, the “death of animal of the group (number)” value in assay [1] (group of twelve mice, model group four, negative control zero) is “two”. Further, in assay [2], the “expression of Cx40” value is “increase”, the “expression of E-cadherin” value is given as “increase”, the “expression of Itga8” value is on record as “decrease” and the “expression of Itgbp” value is “decrease”. The “expression of P-cadherin” value in assay [2] is “increase”. Further, the “expression of the fibroblast growth factor FGF” value in assay [2] (FGF2, 7, 8, 10) is given as “improve”.
